Converted amounts (≈) assume the structure as drawn. Where two headings read alike, the source gives them in different places.
Tests used:
MRSA = assay: MIC by broth microdilution, MRSA isolates; assay type: cell-based; conditions: for MIC50: Staphylococcus aureus, MRSA
E coli wild type = assay: MIC by broth microdilution, wild type E coli; assay type: cell-based; conditions: for MIC AG212 E. coli: strain AG212 E. coli (ATCC25922)
P aeruginosa = assay: MIC by broth microdilution, P aeruginosa isolates; assay type: cell-based, Pseudomonas aeruginosa; conditions: for MIC50: Pseudomonas aeruginosa
[1] = tested on: E coli carrying specific resistance determinants; assay: MIC by broth microdilution, E coli carrying specific resistance determinants; assay type: cell-based; conditions: for MIC50: Escherichia coli
[2] = tested on: Klebsiella pneumonia AG215; assay: MIC by broth microdilution, Klebsiella pneumonia; assay type: cell-based; conditions: strain AG215 Klebsiella pneumonia
[3] = tested on: Acinetobacter baumannii pittii AG225; assay: MIC by broth microdilution, Acinetobacter baumannii; assay type: cell-based; conditions: strain AG225 Acinetobacter baumannii pittii
[4] = tested on: Enterobacter cloacae AG290; assay: MIC by broth microdilution, Enterobacter cloacae; assay type: cell-based; conditions: strain AG290 Enterobacter cloacae
M. smegmatis SZ380 = assay: MIC by broth microdilution, M. smegmatis; conditions: for MIC SZ380 M. smegmatis: strain SZ380 Mycobacterium smegmatis
[5] = strain AG38, Table 1 (Example 2)
[6] = strain AG39, Table 1 (Example 2)
[7] = strain AG42, Table 1 (Example 2)
[8] = strain AG44, Table 1 (Example 2)
[9] = BM13 (AG06) wt, Table 2A (Example 2)
[10] = strain AG01, Table 1 (Example 2)
[11] = strain AG03, Table 1 (Example 2)
[12] = strain AG55, Table 1 (Example 2)
[13] = strain AG31, Table 1 (Example 2)
[14] = strain AG32, Table 1 (Example 2)
[15] = strain AG33, Table 1 (Example 2)
[16] = strain AG86, Table 1 (Example 2)
[17] = strain AG220 Pseudomonas aeruginosa ATCC27853

## CCCC(O)C1OC(OC2C(N)CC(N)C(O)C2OC2OC(CO)C(OC3OC(CN)C(O)C(O)C3N)C2O)C(N)C(O)C1O (centres unmarked) [Compound 142]
MRSA; [5]
  MIC50 MRSA AG38: 4 µg/mL (≈ 6.08 µM)
MRSA; [6]
  MIC50 MRSA AG39: >128 µg/mL
MRSA; [7]
  MIC50 MRSA AG42: >128 µg/mL
MRSA; [8]
  MIC50 MRSA AG44: 2 µg/mL (≈ 3.04 µM)
E coli wild type; [9]
  MIC50 E coli BM13 (AG06) wt: 1 µg/mL (≈ 1.52 µM)
E coli wild type; pH430 WT, Table 2B (Example 2)
  MIC50 E coli pH430 WT: 1 μg/ml
E coli wild type; [10]
  MIC50 E coli AG01: 8 µg/mL (≈ 12.2 µM)
E coli wild type; [11]
  MIC50 E coli AG03: 8 µg/mL (≈ 12.2 µM)
E coli wild type; [12]
  MIC50 E coli AG55: 8 µg/mL (≈ 12.2 µM)
E coli wild type
  MIC AG212 E. coli: 2 µg/mL (≈ 3.04 µM)
P aeruginosa; [13]
  MIC50 P aeruginosa AG31: >128 µg/mL
P aeruginosa; [14]
  MIC50 P aeruginosa AG32: >128 µg/mL
P aeruginosa; [15]
  MIC50 P aeruginosa AG33: >128 µg/mL
P aeruginosa; [16]
  MIC50 P aeruginosa AG86: >128 µg/mL
P aeruginosa; [17]
  MIC AG220 P. aerugin: >32 µg/mL
[1]; Table 2B (Example 2)
  MIC50 E coli AG036 ANT(4′,4″): 32 to 64 µg/mL
  MIC50 E coli AG037 APH(3′)-III: >32 µg/mL
  MIC50 E coli AG103 armA: 1 µg/mL (≈ 1.52 µM)
  MIC50 E coli pH421 APH(3′)-I: >32 μg/ml
  MIC50 E coli pH422 APH(3′)-II: >32 μg/ml
  MIC50 E coli pH423 APH(3)-VI: >32 μg/ml
  MIC50 E coli pH432 ANT(4′): 1 μg/ml
[1]; pH414 AAC(6′)-I, Table 2B (Example 2)
  MIC50 E coli pH414 AAC(6′)-I: 1 μg/ml
[1]; pH415 AAC(6′)-II, Table 2B (Example 2)
  MIC50 E coli pH415 AAC(6′)-II: 1 μg/ml
[2]
  MIC AG215 K. pneumon: 1 µg/mL (≈ 1.52 µM)
[3]
  MIC AG225 A. baumannii: 2 µg/mL (≈ 3.04 µM)
[4]
  MIC AG290 E. cloacae: 1 µg/mL (≈ 1.52 µM)
M. smegmatis SZ380
  MIC SZ380 M. smegmatis: 0.5 µg/mL (≈ 0.76 µM)

## CC(C)(O)C1O[C@H](O[C@@H]2C(N)C[C@@H](N)C(O)[C@H]2O[C@@H]2O[C@H](CO)[C@H](O[C@H]3O[C@@H](CN)[C@@H](O)C(O)C3N)C2O)C(N)[C@@H](O)[C@@H]1O (some centres unmarked) [Compound 159]
MRSA; strain AG38, Table 1 (Example 2), read-out: MIC50 MRSA AG38
  MIC50: 8 to 16 µg/mL (≈ 12.4 to 24.9 µM)
MRSA; strain AG39, Table 1 (Example 2), read-out: MIC50 MRSA AG39
  MIC50: > 128 µg/mL
MRSA; strain AG42, Table 1 (Example 2), read-out: MIC50 MRSA AG42
  MIC50: > 128 µg/mL
MRSA; strain AG44, Table 1 (Example 2), read-out: MIC50 MRSA AG44
  MIC50: 4 to 8 µg/mL (≈ 6.21 to 12.4 µM)
E coli wild type; Escherichia coli, ATCC25922, strain AG212 E. coli (ATCC25922), read-out: MIC AG212 E. coli
  MIC: 4 µg/mL (≈ 6.21 µM)
E coli wild type; Escherichia coli, BM13 (AG06) wt, Table 2A (Example 2), read-out: MIC50 E coli BM13 (AG06) wt
  MIC50: 4 µg/mL (≈ 6.21 µM)
E coli wild type; Escherichia coli, pH430 WT, Table 2B (Example 2), read-out: MIC50 E coli pH430 WT
  MIC50: 1 to 2 µg/mL (≈ 1.55 to 3.11 µM)
E coli wild type; Escherichia coli, strain AG01, Table 1 (Example 2), read-out: MIC50 E coli AG01
  MIC50: 8 µg/mL (≈ 12.4 µM)
E coli wild type; Escherichia coli, strain AG03, Table 1 (Example 2), read-out: MIC50 E coli AG03
  MIC50: 8 µg/mL (≈ 12.4 µM)
E coli wild type; Escherichia coli, strain AG55, Table 1 (Example 2), read-out: MIC50 E coli AG55
  MIC50: 8 µg/mL (≈ 12.4 µM)
P aeruginosa; strain AG31, Table 1 (Example 2), read-out: MIC50 P aeruginosa AG31
  MIC50: > 128 µg/mL
P aeruginosa; strain AG32, Table 1 (Example 2), read-out: MIC50 P aeruginosa AG32
  MIC50: > 128 µg/mL
P aeruginosa; strain AG33, Table 1 (Example 2), read-out: MIC50 P aeruginosa AG33
  MIC50: > 128 µg/mL
P aeruginosa; strain AG86, Table 1 (Example 2), read-out: MIC50 P aeruginosa AG86
  MIC50: > 128 µg/mL
P aeruginosa; strain AG220 Pseudomonas aeruginosa ATCC27853, read-out: MIC AG220 P. aerugin
  MIC: > 64 µg/mL
[1]; read-out: MIC50 E coli AG036 ANT(4′,4″), AG036 ANT(4′,4″), Table 2B (Example 2)
  MIC50: 16 to 32 µg/mL (≈ 24.9 to 49.7 µM)
[1]; read-out: MIC50 E coli AG037 APH(3′)-III, AG037 APH(3′)-III, Table 2B (Example 2)
  MIC50: > 64 µg/mL
[1]; read-out: MIC50 E coli AG103 armA, AG103 armA, Table 2B (Example 2)
  MIC50: 4 to 8 µg/mL (≈ 6.21 to 12.4 µM)
[1]; read-out: MIC50 E coli pH421 APH(3′)-I, pH421 APH(3′)-I, Table 2B (Example 2)
  MIC50: > 64 µg/mL
[1]; read-out: MIC50 E coli pH422 APH(3′)-II, pH422 APH(3′)-II, Table 2B (Example 2)
  MIC50: > 64 µg/mL
[1]; read-out: MIC50 E coli pH423 APH(3)-VI, pH423 APH(3)-VI, Table 2B (Example 2)
  MIC50: 8 µg/mL (≈ 12.4 µM)
[1]; read-out: MIC50 E coli pH432 ANT(4′), pH432 ANT(4′), Table 2B (Example 2)
  MIC50: 2 µg/mL (≈ 3.11 µM)
[2]; Klebsiella pneumoniae, read-out: MIC AG215 K. pneumon
  MIC: 1 to 2 µg/mL (≈ 1.55 to 3.11 µM)
[3]
  MIC: 4 µg/mL (≈ 6.21 µM)
[4]; read-out: MIC AG290 E. cloacae
  MIC: 2 µg/mL (≈ 3.11 µM)
M. smegmatis SZ380; Mycolicibacterium smegmatis, SZ380, read-out: MIC SZ380 M. smegmatis, strain SZ380 Mycobacterium smegmatis
  MIC: 2 µg/mL (≈ 3.11 µM)

## 5″-Deoxy-5″-ureido-paromomycin acetate salt [Compound 141]
MRSA; strain AG38, Table 1 (Example 1)
  MIC50 MRSA AG38: 4 to 8 µg/mL
MRSA; strain AG39, Table 1 (Example 1)
  MIC50 MRSA AG39: >128 µg/mL
MRSA; strain AG42, Table 1 (Example 1)
  MIC50 MRSA AG42: >128 µg/mL
MRSA; strain AG44, Table 1 (Example 1)
  MIC50 MRSA AG44: 4 µg/mL
E coli wild type; AG006 wt, Table 2 (Example 1)
  MIC E coli AG006 wt: 1 µg/mL
E coli wild type; clinical isolate AG160 WT, Table 2 (Example 4)
  MIC AG160 E. coli WT: 4 µg/mL
E coli wild type; engineered strain pH430 WT, Table 2 (Example 4)
  MIC pH430 E. coli WT: 2-4 μg/ml
E coli wild type; strain AG01, Table 1 (Example 1)
  MIC50 E coli AG01: 16 µg/mL
E coli wild type; strain AG03, Table 1 (Example 1)
  MIC50 E coli AG03: 16 µg/mL
E coli wild type; strain AG55, Table 1 (Example 1)
  MIC50 E coli AG55: 16 µg/mL
E coli wild type
  MIC AG212 E. coli: 4 µg/mL
P aeruginosa; strain AG31, Table 1 (Example 1)
  MIC50 P aeruginosa AG31: >128 µg/mL
P aeruginosa; strain AG32, Table 1 (Example 1)
  MIC50 P aeruginosa AG32: >128 µg/mL
P aeruginosa; strain AG33, Table 1 (Example 1)
  MIC50 P aeruginosa AG33: >128 µg/mL
P aeruginosa; strain AG86, Table 1 (Example 1)
  MIC50 P aeruginosa AG86: >128 µg/mL
P aeruginosa; [17]
  MIC AG220 P. aerugin: >64 µg/mL
[1]; engineered strain AG037 APH(3′)-III, Table 2 (Example 4)
  MIC AG037 E. coli APH(3′)-III: >128 µg/mL
[1]; engineered strain pH421 APH(3′)-I, Table 2 (Example 4)
  MIC pH421 E. coli APH(3′)-I: >64 μg/ml
[1]; engineered strain pH422 APH(3′)-II, Table 2 (Example 4)
  MIC pH422 E. coli APH(3′)-II: >64 μg/ml
[1]; engineered strain pH423 APH(3′)-VI, Table 2 (Example 4)
  MIC pH423 E. coli APH(3′)-VI: >64 μg/ml
[2]
  MIC AG215 K. pneumon: 2 µg/mL
[3]
  MIC AG225 A. baumannii: 4 µg/mL
[4]
  MIC AG290 E. cloacae: 2 to 4 µg/mL
M. smegmatis SZ380
  MIC SZ380 M. smegmatis: 2 µg/mL

## CCCC(O)C1OC(OC2C(N)CC(N)C(O)C2OC2OC(CO)C(OC3OC(CN)C(O)C(O)C3N)C2O)C(N)C(O)C1O (centres unmarked) [Compound 143]
MRSA; [5]
  MIC50 MRSA AG38: 32 to 64 µg/mL
MRSA; [6]
  MIC50 MRSA AG39: >64 µg/mL
MRSA; [7]
  MIC50 MRSA AG42: >64 µg/mL
MRSA; [8]
  MIC50 MRSA AG44: 16 µg/mL (≈ 24.3 µM)
E coli wild type; [9]
  MIC50 E coli BM13 (AG06) wt: 4 µg/mL (≈ 6.08 µM)
E coli wild type; pH430 WT, Table 2B (Example 2)
  MIC50 E coli pH430 WT: 4 μg/ml
E coli wild type; [10]
  MIC50 E coli AG01: 32 µg/mL (≈ 48.7 µM)
E coli wild type; [11]
  MIC50 E coli AG03: 32 µg/mL (≈ 48.7 µM)
E coli wild type; [12]
  MIC50 E coli AG55: 32 µg/mL (≈ 48.7 µM)
E coli wild type
  MIC AG212 E. coli: 8 µg/mL (≈ 12.2 µM)
P aeruginosa; [13]
  MIC50 P aeruginosa AG31: >64 µg/mL
P aeruginosa; [14]
  MIC50 P aeruginosa AG32: >64 µg/mL
P aeruginosa; [15]
  MIC50 P aeruginosa AG33: >64 µg/mL
P aeruginosa; [16]
  MIC50 P aeruginosa AG86: >64 µg/mL
P aeruginosa; [17]
  MIC AG220 P. aerugin: >128 µg/mL
[1]; Table 2B (Example 2)
  MIC50 E coli AG036 ANT(4′,4″): 64 µg/mL (≈ 97.3 µM)
  MIC50 E coli AG037 APH(3′)-III: >128 µg/mL
  MIC50 E coli AG103 armA: 16 to 32 µg/mL
  MIC50 E coli pH421 APH(3′)-I: >128 μg/ml
  MIC50 E coli pH422 APH(3′)-II: >128 μg/ml
  MIC50 E coli pH423 APH(3)-VI: 32-64 μg/ml
  MIC50 E coli pH432 ANT(4′): 4 μg/ml
[2]
  MIC AG215 K. pneumon: 4 µg/mL (≈ 6.08 µM)
[3]
  MIC AG225 A. baumannii: 4 to 8 µg/mL
[4]
  MIC AG290 E. cloacae: 4 to 8 µg/mL
M. smegmatis SZ380
  MIC SZ380 M. smegmatis: 16 µg/mL (≈ 24.3 µM)

Reference: patent US11466044B2 (WAYNE STATE UNIVERSITY, priority 2017, dated 2022)
